The results in this text go back to US7538241B2, “Hsp90 family protein inhibitors” (Kyowa Hakko Kogyo Co., Ltd., priority 2003, dated 2009).

A value given as a limit tells only on which side of the number the result lay.

Test [1] relates to human multiple myeloma-derived KMS-11 cells. Briefly: Cell growth inhibition test with KMS-11 cells (WST-1). It is filed as cell-based. Particulars: 72 hours, read-out: 50% growth inhibition concentration (GI50). Here is the method: In a 96-well plate (Nunc), human multiple myeloma-derived KMS-11 cells were sown in an amount of 4000 cells/well, and pre-incubated in 10% FCS-containing RPMI 1640 (Nissui) (incubation medium) in a 5% carbon dioxide incubator at 37° C. for 24 hours. Next, a DMSO solution of a test compound controlled at 10 mmol/L was stepwise diluted with the incubation medium, and added to each well in a total amount of 100 μL/well, and further incubated in the 5% carbon dioxide incubator at 37° C. for 72 hours. After the incubation, WST-1-labeled mixture (Rosh Diagnostic) diluted 2-fold with the incubation medium was added thereto in an amount of 20 μL/well, and incubated in the 5% carbon dioxide incubator at 37° C. for 2 hours. Using a microplate spectrophotometer (Biorad's Model 550), the absorbance at 450 nm and 655 nm of each well was measured. The cell growth inhibition activity of the test compound was indicated by the 50% growth inhibition concentration (GI50) thereof, like in Test Example 2.
(Tetrazolium assays rely on reduction of a dye to a coloured formazan, in cell work by metabolically active cells.)

The test system of a further test is Erk2. Briefly: Western blotting of non-Hsp90 client protein in KMS-11 cells. It is filed as cell-based, human. Particulars: 10 μmol/L and 1.0 μmol/L, 24 hours, FIG. 1. As for the experimental part:
(§1) Human multiple myeloma-derived KMS-11 cells [In Vitro Cell. Dev. Biol., 25, 723 (1989)], which had been diluted with a 10% fetal calf serum-containing RPMI 1640 (incubation medium) to 100,000 cellImL, were put in a 6-well plastic plate for cell incubation (Nunc), in an amount of 3 mL/well. It is reported that the KMS-11 cells express a large quantity of FGFR3 (fibroblast growth factor receptor 3) as a result of translocation between the immunoglobulin gene in 14q32 and the FGFR3 gene in 4p16.3 [Blood 90, 4062 (1997)]. […]
(§2) To the thus-collected cells, added was a cooled cytolysis buffer (50 mmol/L HEPES NaOH, pH 7.4, 250 mmol/L sodium chloride, 1 mmol/L ethylenediamine-tetraacetic acid, 1% Nonidet P-40, 1 mmol/L dithiothreitol, 1 mmol/L phenylmethylsulfonyl fluoride, 5 μg/mL leupeptin), and kept at 4° C. for 30 minutes for cytolysis. […] The protein concentration in the resulting supernatant was measured, and samples were prepared so as to have the same protein amount for each lane, and these were subjected to SDS (sodium dodecylsulfate)-polyacrylamide gel electrophoresis for protein separation.
(§3) Thus separated, the protein sample was transferred onto a polyvinylidene difluoride membrane (Millipore). […] After further reaction with an ECL reagent (Amersham Biosciences), the protein bands were detected on an X-ray film. […]

Test [2] deals with human chronic myelocytic leukemia-derived K562 cells. Briefly: Cell growth inhibition test with K562 cells (WST-1). Particulars: 72 hours, read-out: 50% growth inhibition concentration (GI50). It is filed as cell-based. The method in brief: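 K562 cells at 1500 cells/well in 10% FCS RPMI 1640, pre-incubated 5 h, then exposed to serially diluted compound for 72 h at 37° C, 5% CO2. Viability read by WST-1 after 2 h (absorbance 450/655 nm); GI50 reported.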

Test [3] deals with FGFR3 (fibroblast growth factor receptor 3). Briefly: Deletion of protein encoded by immunoglobulin gene-translocated partner gene in KMS-11 cells (Western blotting). It is filed as cell-based, human. The following applies: 10 μmol/L and 1.0 μmol/L, 24 hours, FIG. 1. Here is the method: as §1, §2, §3
Test [4] deals with human mammary cancer-derived KPL-4 cells. Put plainly: Cell growth inhibition test with KPL-4 cells (WST-1). It is filed as cell-based. The following applies: KPL4, 72 hours, read-out: 50% growth inhibition concentration (GI50). The method in brief:
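KPL-4 cells pre-incubated 24 h in 10% FCS DMEM, then exposed to serially diluted compound for 72 h at 37 °C, 5% CO2. WST-1 added for 1 h; A450 minus A655 read. GI50 relative to untreated cells.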

For the compound `CCc1c(O)cc(O)c(-c2ccccc2)c1CC1O[C@H](CO)[C@@H](CO)O1` [Compound 218, 5-{[(4R,5R)-4,5-bis(hydroxymethyl)-1,3-dioxolan-2-yl]methyl}-6-ethyl-4-phenylbenzene-1,3-diol], the GI50 in test [1] and in test [2] was at most 50 µM in each case. In addition, in the test on Erk2, the “protein amount of Erk2 (non-Hsp90 client protein)” value is reported as “no change”. Moreover, the “deletion of FGFR3 encoded by the immunoglobulin gene-translocated partner gene” value in test [3] is recorded as “deletion of FGFR3”.
Regarding `COC(=O)Cc1c(Br)c(O)cc(O)c1-c1ccco1` [Compound 238, Methyl 2-bromo-6-(furan-2-yl)-3,5-dihydroxyphenylacetate], the GI50 in test [1], in test [4] and in test [2] was at most 50 µM each time.
Take `CCc1c(O)cc(O)c(-c2cccc(O)c2)c1CCOCCO` [Compound 174, 6-Ethyl-5-[2-(2-hydroxyethoxy)ethyl]-4-(3-hydroxyphenyl)benzene-1,3-diol]: the GI50 in test [1], in test [4] and in test [2] was at most 50 µM throughout.
For `CCc1c(O)cc(O)c(-c2cccc(O)c2)c1CCOCCOC` [Compound 166, 6-Ethyl-4-(3-hydroxyphenyl)-5-[2-(2-methoxyethoxy)ethyl]benzene-1,3-diol], the GI50 in test [1], in test [4] and in test [2] was at most 50 µM in each case.
Turning to `CCc1c(O)cc(O)c(-c2ccccc2)c1CCc1ocnc1C(=O)O` [Compound 209, 5-[2-(2-Ethyl-3,5-dihydroxy-6-phenylphenyl)ethyl]-1,3-oxazole-4-carboxylic acid], the GI50 in test [1] and in test [2] was at most 50 µM each time. In addition, the “protein amount of Erk2 (non-Hsp90 client protein)” value with Erk2 is recorded as “no change”. Also, the “deletion of FGFR3 encoded by the immunoglobulin gene-translocated partner gene” value in test [3] is recorded as “deletion of FGFR3”.
